These are literature values, as cited in patent US8912167B2, “Heparin-based compositions and methods for the inhibition of metastasis” (priority 2011, dated 2014).

For this data set the following is noted: under physiological conditions.

With “tetra-[5-(L)-lysyl-amino-O-methylsalicylamide]”, the binding to heparin result is “bind heparin tightly and essentially irreversibly”.
